Data reported in patent publication US9040691B2, “Hydroxymethylaryl-substituted pyrrolotriazines as ALK1 inhibitors” (BAYER INTELLECTUAL PROPERTY GMBH, priority 2011, dated 2015).
One block for each compound: values may come before it.

How the values were obtained:
ALK1 kinase = ALK1 kinase (Homo sapiens (Human), UniProt P37023); assay: In vitro enzyme inhibition using scintillation of incorporated radio label (flashplate assay); format: biochemical; conditions: biotinylated α-casein, 33P-ATP, 500 nM ATP
Chain of ALK1 kinase (P37023 22-503): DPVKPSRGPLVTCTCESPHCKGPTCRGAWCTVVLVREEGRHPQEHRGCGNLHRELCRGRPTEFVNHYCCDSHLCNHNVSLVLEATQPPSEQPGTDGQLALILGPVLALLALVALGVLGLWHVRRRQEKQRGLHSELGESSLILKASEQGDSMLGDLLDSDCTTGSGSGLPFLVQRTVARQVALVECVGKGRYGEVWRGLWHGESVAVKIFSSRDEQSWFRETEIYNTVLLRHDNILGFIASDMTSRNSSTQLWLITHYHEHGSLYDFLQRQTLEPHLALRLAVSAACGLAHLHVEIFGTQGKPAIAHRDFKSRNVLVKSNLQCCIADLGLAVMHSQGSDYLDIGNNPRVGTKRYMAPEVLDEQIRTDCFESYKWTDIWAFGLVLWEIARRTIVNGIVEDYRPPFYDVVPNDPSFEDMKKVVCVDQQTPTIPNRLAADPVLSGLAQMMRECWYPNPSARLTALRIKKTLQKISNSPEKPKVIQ

[1] = system: hSmad7 mRNA in BMP9-stimulated HUVEC; assay: Smad7 target gene induction: HUVEC cell assay and TaqMan expression analysis; format: cell-based, human; conditions: Homo sapiens, 3 h, 1 ng/ml BMP9 for 3 h, Smad7 mRNA by TaqMan

Compound: Nc1ncnn2c(CN3CCOCC3)cc(-c3ccc(CO)c(F)c3)c12 [Example 21, {4-[4-Amino-7-(morpholin-4-ylmethyl)pyrrolo[2,1-f][1,2,4]triazin-5-yl]-2-fluorophenyl}methanol]
IC50 (ALK1 kinase): 25 nM
IC50 [1]: 790 nM

Compound: CCCc1cc(-c2cc(F)c(CO)c(F)c2)c2c(N)ncnn12 [Example 2, [4-(4-Amino-7-propylpyrrolo[2,1-f][1,2,4]triazin-5-yl)-2,6-difluorophenyl]methanol]
IC50 (ALK1 kinase): 2.8 nM
IC50 [1]: 160 nM

Compound: Nc1ncnn2c(CCCO)cc(-c3ccc(CO)cc3)c12 [Example 3, 3-{4-Amino-5-[4-(hydroxymethyl)phenyl]pyrrolo[2,1-f][1,2,4]triazin-7-yl}propan-1-ol]
IC50 (ALK1 kinase): 4 nM
IC50 [1]: 120 nM

Compound: Nc1ncnn2c1c(-c1cc(F)c(CO)c(F)c1)cc2[C@H]1CC[C@H](O)CC1 [Example 7, trans-4-[4-Amino-5-[3,5-difluoro-4-(hydroxymethyl)phenyl]pyrrolo[2,1-f][1,2,4]triazin-7-yl]-cyclohexanol]
IC50 (ALK1 kinase): 2 nM
IC50 [1]: 140 nM

Compound: Nc1ncnn2c(CN3CCOCC3)cc(-c3cc(F)c(CO)c(F)c3)c12 [Example 20, {4-[4-Amino-7-(morpholin-4-ylmethyl)pyrrolo[2,1-f][1,2,4]triazin-5-yl]-2,6-difluorophenyl}-methanol]
IC50 (ALK1 kinase): 30 nM
IC50 [1]: 5900 nM

Compound: Nc1ncnn2c(CN3CCOCC3)cc(-c3ccc(CO)c(Cl)c3)c12 [Example 22, {4-[4-Amino-7-(morpholin-4-ylmethyl)pyrrolo[2,1-f][1,2,4]triazin-5-yl]-2-chlorophenyl}methanol]
IC50 (ALK1 kinase): 17 nM
IC50 [1]: 3100 nM

More lines, in order of falling IC50 (ALK1 kinase), values ahead:

IC50 (ALK1 kinase): 2 nM
Compound: CCCc1cc(-c2ccc(CO)cc2)c2c(N)ncnn12 [Example 1, [4-(4-Amino-7-propylpyrrolo[2,1-f][1,2,4]triazin-5-yl)phenyl]methanol]
IC50 [1]: 94 nM

IC50 (ALK1 kinase): 2 nM
Compound: Nc1nc(-c2cc(-c3ccc(CO)cc3)c3c(N)ncnn23)cs1 [Example 17, {4-[4-Amino-7-(2-amino-1,3-thiazol-4-yl)pyrrolo[2,1-f][1,2,4]triazin-5-yl]phenyl}methanol]
IC50 [1]: 290 nM

IC50 (ALK1 kinase): 1.9 nM
Compound: Nc1ncnn2c([C@@H]3CCCNC3)cc(-c3cc(F)c(CO)c(F)c3)c12 [Example 11, (4-{4-Amino-7-[(3R)-piperidin-3-yl]pyrrolo[2,1-f][1,2,4]triazin-5-yl}-2,6-difluorophenyl)methanol]
IC50 [1]: 180 nM

IC50 (ALK1 kinase): 1.3 nM
Compound: Nc1ncnn2c(C(O)C3CC3)cc(-c3cc(F)c(CO)c(F)c3)c12 (centres unmarked) [Example 5, {4-Amino-5-[3,5-difluoro-4-(hydroxymethyl)phenyl]pyrrolo[2,1-f][1,2,4]triazin-7-yl}(cyclopropyl)methanol]
IC50 [1]: 290 nM
